Test results as given in US11970490B2, “Stable heavy isotopes in amide functional groups and uses thereof” (RISEN (SUZHOU) PHARMA TECH CO., LTD., priority 2020, dated 2024).

Tests used:
[1] = Pharmacokinetic studies in ICR mice, oral gavage, plasma; assay type: in vivo; conditions: 2.5 mg/kg; for AUC(0-inf) / AUC(0-t) / Cmax / Tmax / Vd/F: mouse; for AUC(0-inf) / AUC(0-t) / Cmax / Tmax / Vd/F / CLz/F: oral gavage, 1:1 molar mix, plasma; for Vd/F: read-out: Vz/F
Description: ICR mice, 48, in 6 groups (n=8), were grouped randomly. Compound 1 (Alpelisib-^18O1) and Alpelisib were mixed and adjusted to 1:1 molar ratio in dosing solution (1.25 mg/mL); and the dosing solution was administered to the animals, via oral gavage, at a dose level of 2.5 mg/kg. Blood samples were collected (a group of 8 animals for each time point) at time points, after dosing, at 0.5, 1, 2, 4, 8, and 12 h. The blood samples were converted to plasma samples using standard techniques, and the latter samples were analyzed to determine the concentrations of Compound 1 and Alpelisib. In FIG. 2, lines labelled with -o- and -Δ-represent the plasma concentrations of Alpelisib-^18O1 and Alpelisib, respectively, following oral administration of the same dose of Alpelisib-^18O1 and Alpelisib to the animals.

[2] = Pharmacokinetic studies in beagle dogs, single oral dose, co-administered; assay type: in vivo; conditions: for Cmax / Tmax / half-life / AUC(0-t) / Vd/F: both sexes, dog, plasma; for Cmax / Tmax / half-life / AUC(0-t) / Vd/F / CLz/F: single oral dose 2.5 mg/kg each; for Cmax / Tmax / half-life / Vd/F / CLz/F: co-administered; for AUC(0-t): co-administered (total 5 mg/kg); for Vd/F: read-out: Vz/F
Description: Male and female beagle dogs (n=4; 2 males and 2 females) were used in the study. A single oral dose of Alpelisib (2.5 mg/kg) and Compound 1 (^18O1-Alpelisib) (2.5 mg/kg) were co-administered (at a total dose of 5 mg/kg) in DMSO and 0.5% carboxymethyl cellulose sodium (CMC-Na) aqueous solution (5:95, v/v). Blood samples were collected for analysis of Alpelisib and ^18O1-Alpelisib at 0.25, 0.5, 1, 1.5, 2, 3, 4, 6, 8, 10, 12 and 24 h. In FIG. 4, lines labelled with -o- and -Δ- represent the plasma concentrations of Alpelisib-^18O1 and Alpelisib, respectively, following oral administration of the same dose of Alpelisib-^18O1 and Alpelisib to the animals.

[3] = Pharmacokinetic studies in Sprague Dawley (SD) rats, oral gavage, plasma; assay type: in vivo; conditions: for AUC(0-t) / AUC(0-inf) / Cmax / Tmax / Vd/F: Sprague-Dawley, rat; for AUC(0-t) / AUC(0-inf) / Cmax / Tmax / Vd/F / plasma concentration at 24-h timepoint / CLz/F: oral gavage; for AUC(0-t) / AUC(0-inf) / Cmax / Tmax / Vd/F / CLz/F: plasma; for Vd/F: read-out: Vz/F; for plasma concentration at 24-h timepoint: 0.322 mg/kg
Description: (a) SD rats, six in a group (n=6), were grouped randomly. Compound 1 (Alpelisib-^18O1) and Alpelisib were mixed and adjusted to 1:1 molar ratio in dosing solution (1.25 mg/mL); and the dosing solution was administered to the animals, via oral gavage, at a dose level of 2.5 mg/kg. Blood samples were collected at pre-set time points following drug administration, at 0.167, 0.5, 1, 2, 3, 4, 6, 8, and 24 hours (h). The blood samples were converted to plasma samples using standard techniques, and the latter samples were analyzed to determine the concentrations of Compound 1 and Alpelisib. In FIG. 1a, lines labelled with -o- and -Δ-represent the plasma concentrations of Alpelisib-^18O1 and Alpelisib, respectively, following oral administration of the same molar dose of Alpelisib-^18O1 and Alpelisib to the animals.
(b) Similarly, Compound 1 (Alpelisib-^18O1) and Alpelisib were administered to the animals (SD rats, n=4), via oral gavage, at a low dose (dose level of 0.322 mg/kg). Blood samples were collected at pre-set time points following drug administration, at 0.167, 0.5, 1, 2, 4, 6, 8, 10 and 24 hours (h). The blood samples were converted to plasma samples using standard techniques, and the latter samples were analyzed to determine the concentrations of Compound 1 and Alpelisib. […] In FIG. 1b, solid line and dashed line represent the plasma concentrations of Alpelisib-^18O1 and Alpelisib, respectively.

[4] = M4 and M4-18O1 production in monkey liver S9; assay type: in vitro ADME; conditions: monkey liver S9, 37° C., β-NADPH, 0-240 min, equal molar co-incubation
Description: (§1) Stock solution (50 μL) containing equal molar concentration of Alpelisib and Alpelisib-^18O1 was diluted with pre-warmed (37° C., water bath) 0.1 M Tris-Acetate buffer; and the concentration of each compound in this working solution was 4.5 μM. In each incubation well were added the above working solution (50 μL) and a liver S9 solution (50 μL), mixed well. The sample was pre-incubated for 5 min, following by addition, to each well, of β-NADPH dosing solution (100 μL). The sample plate was incubated at 37° C., and analyzed at time points of 0, 15, 30, 60, and 240 min., in triplicates. Sample analysis: at a pre-set time-point, a stop solution (800 μL, acetonitrile) was added to each well; the sample was well-mixed (Vortex), and centrifuged at 12000 rpm for 5 minutes; the supernatant was transferred to analytical sample vial, and then analyzed with LC-MS/MS, for M4 and M4-^18O1. […] Liver S9 used in the experiment: (a) monkey liver S9, (b) pooled human S9, (c) mini pig liver S9, and (d) male Wistar rat Liver S9.

[5] = M4 and M4-18O1 production in pooled human S9; assay type: in vitro ADME; conditions: pooled human S9, 37° C., β-NADPH, 0-240 min, equal molar co-incubation
Description: as §1

[6] = M4 and M4-18O1 production in mini pig liver S9; assay type: in vitro ADME; conditions: mini pig liver S9, 37° C., β-NADPH, 0-240 min, equal molar co-incubation
Description: as §1

[7] = M4 and M4-18O1 production in male Wistar rat liver S9; assay type: in vitro ADME; conditions: male Wistar rat liver S9, 37° C., β-NADPH, 0-240 min, equal molar co-incubation
Description: as §1

[8] = James, A. et al., 2015; cited from earlier work
[9] = dose 2.5 mg/kg, 1:1 molar mix of Compound 1 and Alpelisib

| AUC(0-inf) [1] [ng·h/mL] | AUC(0-t) [1] [ng·h/mL] | Cmax [1] [ng/mL] | Tmax [1] [h] | Vd/F [1] [L/kg] | CLz/F [1] [mL/min/kg] | Cmax [2] [ng/mL] | Tmax [2] [h] | half-life [2] [h] | AUC(0-t) [2] [ng·h/mL] | Vd/F [2] [L/kg] | CLz/F [2] [mL/min/kg] | AUC(0-t) [3, 9] [ng·h/mL] | AUC(0-inf) ([3]; dose 2.5 mg/kg, 1:1 molar mix) [ng·h/mL] | Cmax ([3]; dose 2.5 mg/kg, 1:1 molar mix) [ng/mL] | Tmax ([3]; dose 2.5 mg/kg, 1:1 molar mix) [h] | Vd/F ([3]; dose 2.5 mg/kg, 1:1 molar mix) [L/kg] | AUC(0-inf) ([3]; low dose 0.322 mg/kg) [ng·h/mL] | AUC(0-t) ([3]; low dose 0.322 mg/kg) [ng·h/mL] | Cmax ([3]; low dose 0.322 mg/kg) [ng/mL] | SMILES | further results |
| --- | --- | --- | --- | --- | --- | --- | --- | --- | --- | --- | --- | --- | --- | --- | --- | --- | --- | --- | --- | --- | --- |
| 30600 | 26200 | 4210 | 2 | 2.37 | 6.82 | 931 | 1.2 | 5.4 | 6120 | 3 | 6.83 | 26400 | 26500 | 2300 | 3 | 1.8 | 80.3 | 75.2 | 28.1 | Cc1nc(NC(=O)N2CCC[C@H]2C(N)=O)sc1-c1ccnc(C(C)(C)C(F)(F)F)c1 [Alpelisib, N-(4-methyl-5-(2-(2,2,2-trifluoro-1,1-dimethylethyl)-4-pyridinyl)-2-thiazolyl)aminocarbonyl-L-prolinamide, reference compound] | Tmax ([3]; low dose 0.322 mg/kg): 0.625 h; Vd/F ([3]; low dose 0.322 mg/kg): 13.1 L/kg; plasma concentration at 24-h timepoint [3]: below the limit of quantification; CLz/F ([3]; dose 2.5 mg/kg, 1:1 molar mix): 7.87 mL/min/kg; CLz/F ([3]; low dose 0.322 mg/kg): 68.3 mL/min/kg |
| 32600 | 27800 | 4520 | 2 | 2.24 | 6.4 | 1470 | 1.1 | 4.5 | 6680 | 2.4 | 6.33 | 28700 | 28800 | 2390 | 3 | 1.66 | 132 | 118 | 32.6 | Cc1nc(NC(=O)N2CCC[C@H]2C(N)=[18O])sc1-c1ccnc(C(C)(C)C(F)(F)F)c1 [Compound 1, N-(4-methyl-5-(2-(2,2,2-trifluoro-1,1-dimethylethyl)-4-pyridinyl)-2-thiazolyl)aminocarbonyl-L-prolin-^18O-amide] | metabolism compared to Alpelisib (M4-18O1 versus M4 production) [4]: reduced; plasma concentration compared with Alpelisib ([1]; oral): higher; plasma concentration compared with Alpelisib ([2]; oral, 2.5 mg/kg each): higher; metabolism compared to Alpelisib (M4-18O1 versus M4 production) [5]: reduced; metabolism compared to Alpelisib (M4-18O1 versus M4 production) [6]: reduced; Tmax ([3]; low dose 0.322 mg/kg): 0.875 h; Vd/F ([3]; low dose 0.322 mg/kg): 11.4 L/kg; plasma concentration at 24-h timepoint [3]: below the limit of quantification; CLz/F ([3]; dose 2.5 mg/kg, 1:1 molar mix): 7.23 mL/min/kg; CLz/F ([3]; low dose 0.322 mg/kg): 41.7 mL/min/kg; plasma concentration compared with Alpelisib ([3]; oral, both doses tested (2.5 and 0.322 mg/kg), greatest effect at low dose): higher; metabolism compared to Alpelisib (M4-18O1 versus M4 production) [7]: reduced |
| – | – | – | – | – | – | – | – | – | – | – | – | – | – | – | – | – | – | – | – | Cc1nc(NC(=O)N2CCC[C@H]2C(=O)O)sc1-c1ccnc(C(C)(C)C(F)(F)F)c1 [Compound M4] | biological activity of the acid metabolite [8]: biologically inactive |
